Assay results from PubChem BioAssay (NCI).
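Briefly, cells in 96-well plates were exposed to five compound concentrations for 48 h, and endpoints were estimated by linear interpolation. GI50 marks 50% less growth. TGI: concentration producing complete growth inhibition.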

What was measured:
Assay in all cases: growth of human tumour cells (NCI), 48 h
CCRF-CEM leukemia = tested on: CCRF-CEM leukemia
MOLT-4 leukemia = tested on: MOLT-4 leukemia
HOP-62 NSCLC = tested on: HOP-62 NSCLC
LOX IMVI melanoma = tested on: LOX IMVI melanoma
U251 CNS = tested on: U251 CNS
NCI/ADR-RES ovarian = tested on: NCI/ADR-RES ovarian
HL-60(TB) leukemia = tested on: HL-60(TB) leukemia
M14 melanoma = tested on: M14 melanoma
EKVX NSCLC = tested on: EKVX NSCLC
RPMI-8226 leukemia = tested on: RPMI-8226 leukemia

Structure (SMILES) | GI50 (CCRF-CEM leukemia) [µM] | TGI (CCRF-CEM leukemia) [µM] | GI50 (MOLT-4 leukemia) [µM] | TGI (MOLT-4 leukemia) [µM] | GI50 (HOP-62 NSCLC) [µM] | TGI (HOP-62 NSCLC) [µM] | GI50 (LOX IMVI melanoma) [µM] | TGI (LOX IMVI melanoma) [µM] | GI50 (U251 CNS) [µM] | TGI (U251 CNS) [µM] | GI50 (NCI/ADR-RES ovarian) [µM] | TGI (NCI/ADR-RES ovarian) [µM] | GI50 (HL-60(TB) leukemia) [µM] | TGI (HL-60(TB) leukemia) [µM] | GI50 (M14 melanoma) [µM] | TGI (M14 melanoma) [µM] | GI50 (EKVX NSCLC) [µM] | TGI (EKVX NSCLC) [µM] | TGI (RPMI-8226 leukemia) [µM] | GI50 (RPMI-8226 leukemia) [µM]
CC(=O)C(C=O)C(C)=O.CC(=O)CC(C)=O.CC(=O)CC(C)=O.[Ru] | 5.62 | 21.8 | 28.6 | > 100 | 32.4 | > 100 | 13.6 | 80.3 | 29.1 | > 100 | 21.8 | 95 | 30.4 | > 100 | 49.4 | > 100 | 18.1 | 95.9 | – | –
NCC1(N2CCOCC2)C2CCCC21CNc1ccccc1 (stereo unspecified) | – | > 100 | – | > 100 | – | > 100 | – | > 100 | – | > 100 | – | – | – | > 100 | – | > 100 | – | – | – | –
O=C1C(Br)=CC2(C=C1Br)CCNc1c(O)c3c4c(c12)=NCCC=4C=N3 | – | 0.0734 | – | 0.11 | – | 5.34 | – | 0.254 | – | 1.07 | – | 0.58 | – | – | – | 0.212 | – | 0.521 | 0.212 | –
COC(=O)C1(O)c2ccccc2N=C2C1CCN2C (stereo unspecified) | – | > 100 | – | > 100 | – | > 100 | – | > 100 | – | > 100 | – | – | – | > 100 | – | > 100 | – | > 100 | > 100 | –
O=C1CC[C@@H](NC(=O)Cc2ccccc2)C(=O)N1 | – | > 100 | – | > 100 | – | > 100 | – | > 100 | – | > 100 | – | – | – | – | – | > 100 | – | > 100 | > 100 | –
COC(=O)NC(=O)c1cn(C2CCCCC2)c(=O)[nH]c1=O | – | > 100 | – | > 100 | – | > 100 | – | > 100 | – | > 100 | – | – | – | > 100 | – | > 100 | – | – | > 100 | –
COc1cc(NC(C)CCCN2C(=O)c3ccccc3C2=O)c2ncccc2c1OC (stereo unspecified) | 49.2 | > 100 | 38.3 | > 100 | 52.6 | > 100 | 28.2 | > 100 | 46.8 | > 100 | 24 | > 100 | 15.2 | > 100 | 30.5 | > 100 | 29.7 | > 100 | – | –
O=C(CSc1ncc(-c2ccccc2)n1-c1ccccc1)Nc1ccc(-c2nc3ccccc3s2)cc1 | > 100 | > 100 | – | – | 5.68 | > 100 | 5.31 | > 100 | 2.42 | 5.56 | – | – | > 100 | > 100 | – | – | 8.82 | > 100 | > 100 | > 100
c1ccc2c(c1)N=C(c1ccc3ccccc3c1)CC(c1cccc3ccccc13)S2 (stereo unspecified) | – | 33.5 | – | 44.2 | – | > 100 | – | > 100 | – | > 100 | – | – | – | 47.1 | – | > 100 | – | > 100 | 52.5 | –
Cc1cn2c(/C=C3/C(=O)Nc4ccc(Cl)cc43)c(C)nc2s1 | – | – | 0.0776 | > 100 | 0.214 | 18.3 | 0.0706 | 54.5 | < 0.0235 | 28.7 | 0.0211 | – | – | – | < 0.028 | > 45.7 | 12.5 | > 100 | > 100 | 0.0137
NC(=O)c1ncn(Cc2ccccc2)c1CNC(N)=S | – | > 100 | – | > 100 | – | – | – | > 100 | – | > 100 | – | – | – | > 100 | – | > 100 | – | > 100 | > 100 | –
CC1(C)CC(N2CCN(C3CC(C)(C)NC(C)(C)C3)CC2)CC(C)(C)N1 | – | > 100 | – | > 100 | – | > 100 | – | > 100 | – | > 100 | – | – | – | > 100 | – | > 100 | – | > 100 | > 100 | –
O=C1N=C(Nc2nc(-c3csc(NC4=NC(=O)/C(=C\c5ccc(Cl)cc5)S4)n3)cs2)S/C1=C/c1ccc(Cl)cc1 | – | – | 1.69 | > 50 | 3.29 | 18 | 8.34 | > 50 | 4.83 | > 50 | 18.1 | > 50 | 12.6 | 33.8 | 3.03 | 11.5 | 12.3 | > 50 | – | –
Cc1ccc(NC(=O)C(=O)CC(=O)c2ccccc2)cc1C | – | – | – | – | – | > 100 | – | > 100 | – | > 100 | – | – | – | – | – | > 100 | – | > 100 | > 100 | –
O=C(/C=C/c1ccccc1)OCC1=C[C@@H](O)[C@@H]2C=CO[C@@H](OC3OC(CO)C(O)C(O)C3O)[C@H]12 (stereo partly specified) | – | > 100 | – | > 100 | – | > 100 | – | > 100 | – | > 100 | – | > 100 | – | – | – | > 100 | – | > 100 | > 100 | –
Cc1cc(C#Cc2ccccc2)ccc1-n1c(/C=C/c2cc(O)ccc2O)nc2ccccc2c1=O | 1.54 | 7.13 | 1.14 | 3.97 | 1.71 | 3.79 | 1.37 | 2.65 | 1.45 | 2.77 | 2.06 | 5.22 | – | – | 1.54 | 2.91 | 1.24 | 5.41 | 6.08 | 1.26
O=C1c2ccccc2C(=O)c2c1ccc1c2N=C(c2ccc(Br)cc2)CC(c2cccc3ccccc23)N1 (stereo unspecified) | – | > 100 | – | – | – | > 100 | – | > 100 | – | > 100 | – | – | – | > 100 | – | > 100 | – | > 100 | > 100 | –
N[C@@H](CSSC[C@H](N)C(=O)N1CCn2cc(-c3ccccc3)nc2[C@@H]1CC1CCCCC1)C(=O)N1CCn2cc(-c3ccccc3)nc2[C@@H]1CC1CCCCC1 | – | – | 1.74 | > 21.4 | 1.59 | 3.25 | 1.34 | 2.99 | 1.37 | 2.76 | 2.95 | 9.32 | 2.13 | > 19.7 | 0.301 | 1.23 | 1.34 | 2.81 | 5.68 | 2.35
O=C(NC1C(=O)NNC1c1ccccc1Cl)c1ccccc1 (stereo unspecified) | – | > 100 | – | > 100 | – | > 100 | – | > 100 | – | > 100 | – | – | – | > 100 | – | > 100 | – | > 100 | > 100 | –
